Consider 7 molecules from publication PMC11173628, “Imidazole Carbamates as a Promising Alternative for Treating Trichomoniasis: In Vitro Effects on the Growth and Gene Expression of Trichomonas vaginalis” (Molecules, 2024).

In series [1] the test system is T. vaginalis Donne ATCC 30236 trophozoites. The series can be described thus: Determination of IC50 values (anti-Trichomonas activity, trypan blue and XTT). In kind it is cell-based, Trichomonas vaginalis. The conditions noted are these: for pIC50: Trichomonas vaginalis, ATCC30236, T. vaginalis Donne ATCC 30236, 24 h, 37 °C, 0–10 µM, trypan blue and XTT, read-out: IC50 (viability of T. vaginalis trophozoites); for Enhancement of trichomonacidal effect in relation to MTZ: ratio of IC50 values vs MTZ; for Enhancement of trichomonacidal effect in relation to NTZ: ratio of IC50 values vs NTZ. The procedure:
Figure 2 Determination of the IC50 values of AGR compounds on the culture of Trichomonas vaginalis. […] The trophozoites were incubated in the presence of the compounds for 24 h at 37 °C with different concentrations of each compound. Values represent the mean ± standard deviation of three independent experiments.
The T. vaginalis Donne ATCC 30236 strain was acquired from the ATCC (American Type Culture Collection). It was cultured axenically in trypticase–yeast extract–maltose medium (TYM, at pH 6.0) supplemented with 10% sterile horse serum (previously inactivated at 56 °C for 30 min) and incubated at 37 °C [42]. The trophozoites were analyzed via motility, morphology, and trypan blue dye exclusion assays (0.4%) under an optical microscope with a magnification of 40×. The parasites were cultured for 24 h at 37 °C, corresponding to the logarithmic growth phase, and were used for anti-Trichomonas assays.
The anti-Trichomonas activity was evaluated in 1.5 mL tubes, where 2.6 × 10^5 trophozoites/mL was treated with increasing concentrations (0–10 µM) of the selected compounds. The tubes were incubated at 37 °C for 24 h. Then the trypan blue dye exclusion and XTT assay tests were used for evaluations of cell viability, as previously described. […] The IC50 values were calculated using GraphPad Prism 8.0 Inc. software, Version 8.0.2 (263) (San Diego, CA, USA).
On the technique in general: Tetrazolium assays rely on reduction of a dye to a coloured formazan, in cell work by metabolically active cells.

Series [2] in a line: In vitro cytotoxicity assay (XTT), HT29. Particulars: human. The procedure: (§1) Concentration–response curves for the viability of (A) Caco-2 and (B) HT29 cells treated with increasing concentrations of AGR compounds. […] Cell viability was determined using trypan blue dye exclusion (0.4%) (1:1, v/v) in a Neubauer chamber, as well as an XTT proliferation assay. Values represent the mean ± standard deviation of three independent experiments.
(§2) The Caco-2 and HT29 cell lines were provided by Luz Maria Rocha Ramirez from Hospital Infantil de México Federico Gómez, Secretaría de Salud. Cells were cultured in DMEM medium supplemented with 10% fetal bovine serum, 1% L-glutamine, and 1% penicillin/streptomycin at 37 °C in a 5% CO2 atmosphere. […] After incubation, cell viability was assessed using the XTT assay. The results are expressed as a percentage of viable cells compared with untreated cells. The cytotoxic concentration 50 (CC50) was calculated using GraphPad Prism 7.0 software. […] The assay was performed at least three times in triplicate. The selectivity index (SI) was calculated as SI = cells CC50/trophozoites IC50.

Another series deals with HT29 cells. Put plainly: In vitro cytotoxicity assay (XTT), HT29. Particulars: CC50 HT29 / IC50 trophozoites. The procedure: as §1, §2
For a further series, the system named is CaCo-2 cells. The series can be described thus: In vitro cytotoxicity assay (XTT), Caco-2. Particulars: CC50 CaCo-2 / IC50 trophozoites. The procedure:
as §1, §2

Series [3] in a line: In vitro cytotoxicity assay (XTT), Caco-2. Particulars: human. The procedure:
as §1, §2

The test system of series [4] is T. vaginalis trophozoites (metabolic gene transcripts). The series can be described thus: Relative gene expression of T. vaginalis in presence of compounds (RT-qPCR, 2^-ΔΔCt, PK reference gene). It counts as cell-based, Trichomonas vaginalis. Particulars: 24 h at IC50 concentration; for Increase of PFK transcripts: vs untreated control. The procedure: The main carbon and energy source for T. vaginalis is the fermentative carbohydrate metabolism. We sought to determine whether the death of T. vaginalis is related to changes in its metabolic genes. A gene expression assay based on RT-qPCR was performed to evaluate the transcription levels of several genes in T. vaginalis trophozoites that were incubated for 24 h at the IC50 concentration for each compound.
To evaluate the expression levels of the genes involved in the metabolism of T. vaginalis in the absence and presence of trichomonacidal compounds, the genetic expression levels of 15 genes were analyzed by means of real-time RT-qPCR. To this end, genes encoding enzymes involved in essential metabolic pathways for cell survival, such as glycolysis, the pentose phosphate pathway, structural proteins, and redox maintenance, were identified using the GenBank database (https://www.ncbi.nlm.nih.gov/genbank/ accessed on 15 January 2023) (Table 3).
The total RNA from trophozoites in the absence and presence of the compound was extracted using TRIzol® Reagent (Invitrogen, Carlsbad, CA, USA) according to the manufacturer’s instructions. The quality of RNA was assessed at 260/280 nm, and the integrity was assessed by 2.0% (w/v) agarose gel electrophoresis. For synthesis of the cDNA, samples were treated with 1 U of DNAase I enzyme (Thermo Fisher Scientific, Waltham, MA, USA). cDNA was synthesized using the primers Oligo (dT) 18 (Thermo Fisher Scientific) and RevertAid reverse transcriptase (Thermo Fisher Scientific). All synthesized cDNAs were quantified and stored at −70 °C until use.
We evaluated the expression levels of genes involved in the metabolism of T. vaginalis trophozoites in the absence and presence of trichomonacidal compounds. The amplification of the specific PCR products and the specificity of the primers of the genes proposed in this study (Table 4) were determined using the Fast SYBR® Green Master Mix kit (Applied Biosystems, Foster City, CA, USA) in the StepOnePlusTM Real-Time PCR Systems platform (Life Technologies, Foster City, CA, USA), which was carried out according to the method previously reported by Gutiérrez-Cardona et al..
The relative changes in the expression levels of the target genes (PK, CK, PFK, ALDO, TPI, GAPDH, ENOL, G6PD, 6PGDH, TKT, TALDO, PFOR, NADH, ACT, and TUB) were analyzed by the 2^−ΔΔCt method, using the PK reference gene for normalization. The curve was fitted with GraphPad Prism 8 software (GraphPad Software Inc., La Jolla, CA, USA), and statistical analysis was performed. ANOVA and the Tukey–Kramer test were used to evaluate the relative change in expression after normalization. Three replicates were included for each treatment, and all reactions were performed in triplicate.
A general note: Quantitative PCR measures a nucleic acid by following its amplification.

For series [5], the system named is T. vaginalis trophozoites. The series can be described thus: Kinetic growth curve of T. vaginalis in presence of compounds. The conditions noted are these: compound at its IC50, monitored up to 96 h. It counts as cell-based, Trichomonas vaginalis. The procedure: The trophozoites were incubated at the IC50 values for each compound. The viability and number of trophozoites were monitored at 6, 12, 18, 24, 48, 72, and 96 h with trypan blue (0.4%) (1:1, v/v) and XTT assays.
To understand the antiparasitic activities of the compounds against T. vaginalis cultures, we produced a curve of the kinetic growth of T. vaginalis as a function of time. […] Trophozoites were observed via light microscopy, and their growth and viability were evaluated at 6, 12, 24, 48, 72, and 96 h.

Where [6] appears, read: HT29 cells, HT29 CC50, 48 h, 0–500 µM, XTT.
Where [7] appears, read: Caco-2, CaCo-2 CC50, 48 h, 0–500 µM, XTT.

Molecules are shown by their SMILES. pIC50: −log10 of the molar value. “Also recorded” adds a separate entry of the source. Some results are limits rather than exact numbers.

A word on the pIC50: it is the negative decadic logarithm of the IC50, by convention in mol/L. Usually CC50 stands for the concentration at which the toxic effect on the cells reaches its halfway point. For the molecule `Cc1ncc([N+](=O)[O-])n1CCOC(=O)NC1CCCCC1` [AGR-1], in series [1], the pIC50 is 6.17, the “Enhancement of trichomonacidal effect in relation to MTZ” value (“Enhancement … to MTZ” below) is listed as “fivefold” and the “Enhancement of trichomonacidal effect in relation to NTZ” value (“Enhancement … to NTZ” below) worked out at 10 fold. In addition, it took 532 µM to reach half-maximal cytotoxicity in series [2] (setting [6]) (CC50 at 48 h). The “HT29 SI (CC50/IC50)” value in the series with HT29 cells was found to be 794. In addition, the “CaCo-2 SI (CC50/IC50)” value in the series on CaCo-2 cells is on record as 970.0. In series [3] (setting [7]), the CC50 at 48 h was determined as 650 µM. Further, in series [4], the “Effect on ALDO expression” value is “increased”, the “Expression of NADH oxidase gene” value is “decreased”, the “Overexpression of PFOR” value is reported as 11 fold and the “Increase of PFK transcripts” value turned out to be 1.2 fold. Further, the “Effect on kinetic growth curve of T. vaginalis” value (“Effect on kinetic growth curve” below) in series [5] was “more significant delay in the logarithmic and stationary phases”.
On to `Cc1ncc([N+](=O)[O-])n1CCOC(=O)Nc1ccccc1` [AGR-2], for which, in series [1], the negative logarithm of the IC50 (pIC50) was 6.40, the “Enhancement … to MTZ” value came out at 8 fold and the “Enhancement … to NTZ” value is listed as 16 fold. This molecule also returned a CC50 at 48 h in series [2] (setting [6]) of 730 µM. Further, in the series on HT29 cells, the “HT29 SI (CC50/IC50)” value is over 1000. In addition, the “CaCo-2 SI (CC50/IC50)” value in the series on CaCo-2 cells is recorded as over 1000. For the same molecule, the CC50 at 48 h in series [3] (setting [7]) turned out to be 560 µM. Moreover, in series [4], the “Effect on ALDO expression” value is “reduced”, the “Effect on GAPDH expression” value is “reduced”, the “Expression of NADH oxidase gene” value is given as “decreased” and the “Overexpression of PFOR” value came to 7.5 fold. Also, the “Increase of PFK transcripts” value in series [4] amounted to 1.5 fold. Moreover, the “Effect on kinetic growth curve” value in series [5] is “more significant delay in the logarithmic and stationary phases”.
With `Cc1ncc([N+](=O)[O-])n1CCOC(=O)Nc1ccc(Cl)cc1` [AGR-3], in series [1], the pIC50 was 6.19, the “Enhancement … to MTZ” value is “fivefold” and the “Enhancement … to NTZ” value is recorded as 10 fold. Half-maximal cytotoxicity in series [2] (setting [6]) (CC50 at 48 h) was put at 660 µM. In addition, the “HT29 SI (CC50/IC50)” value in the series on HT29 cells was over 1000. The “CaCo-2 SI (CC50/IC50)” value in the series with CaCo-2 cells was found to be 817.1. Further, the CC50 at 48 h in series [3] (setting [7]) came out at 523 µM. In series [4], the “Effect on ALDO expression” value is on record as “reduced”, the “Effect on GAPDH expression” value is on record as “reduced”, the “Effect on PFK expression” value is recorded as “negatively affected” and the “Overexpression of PFOR” value is on record as 7.5 fold.
Consider `Cc1ncc([N+](=O)[O-])n1CCOC(=O)Nc1ccc(F)cc1` [AGR-4], for which, in series [1], the pIC50 was 6.02. In series [2] (setting [6]), this molecule yielded a CC50 at 48 h of 593 µM. In the series on HT29 cells, the “HT29 SI (CC50/IC50)” value turned out to be 617. In addition, the “CaCo-2 SI (CC50/IC50)” value in the series on CaCo-2 cells stood at 531.2. In series [3] (setting [7]), this molecule displayed a CC50 at 48 h of 510 µM. Also, in series [4], the “Decrease in the expression of PFOR” value was determined as 1.5 fold, the “Effect on ALDO expression” value is given as “reduced”, the “Effect on GAPDH expression” value was “reduced” and the “Effect on PFK expression” value is “negatively affected”. Further, in series [4], the “Expression of NADH oxidase gene” value was “decreased”. For the same molecule, the “Effect on kinetic growth curve” value in series [5] was “more significant delay in the logarithmic and stationary phases; also recorded: inhibited the growth of the parasite to a greater degree”.
As for `Cc1ncc([N+](=O)[O-])n1CCOC(=O)Nc1ccc([N+](=O)[O-])cc1` [AGR-5], in series [1], the pIC50 is 5.84. Also, it took 560 µM to reach half-maximal cytotoxicity in series [2] (CC50 at 48 h). The “HT29 SI (CC50/IC50)” value in the series with HT29 cells was 386. In addition, in the series on CaCo-2 cells, the “CaCo-2 SI (CC50/IC50)” value was found to be 400. Besides, the midpoint of cytotoxicity in series [3] (Caco-2), the CC50 at 48 h, lay at 580 µM. Further, in series [4], the “Effect on PFK expression” value is listed as “negatively affected”, the “Expression of NADH oxidase gene” value is given as “decreased” and the “Overexpression of PFOR” value stood at 2.5 fold.
As for `Cc1ncc([N+](=O)[O-])n1CCO` [MTZ, metronidazole, reference compound], the pIC50 in series [1] is 5.51.
`CC(=O)Oc1ccccc1C(=O)Nc1ncc([N+](=O)[O-])s1` [NTZ, nitazoxanide, reference compound]: in series [1], the negative logarithm of the IC50 (pIC50) is 5.18. In addition, the “HT29 SI (CC50/IC50)” value in the series on HT29 cells was 95.7. In addition, the “CaCo-2 SI (CC50/IC50)” value in the series with CaCo-2 cells is on record as 87.6.
